In one series the test system is MDA-MB-468. Nature of the series: MTT antiproliferation assay in MDA-MB-468 cells. The conditions noted are these: Homo sapiens, concentration that limits growth by 50%, 72 hour incubation, mean ± SD, at least two experiments in duplicate. It counts as cell-based. As to the method:
(§1) The newly synthesized selectively mono-N-acylated compounds of series 4 and series 7 were evaluated as potential anticancer agents because compound 1 had been previously shown to display anticancer activity by inhibiting DHFR (Kuyper L F et al, J Med Chem 39, 892-903 (1996); incorporated by reference herein). Compounds of series 2 were not evaluated due to their poor solubility in DMSO. Two triple negative breast cancer (TN BC) cell lines (MDA-MB-231 and MDAMB-468) were selected to evaluate potential anticancer activity of the compounds of series 4 and series 7 by an MTT assay (Li B X et al, Bioorg Med Chem 20, 6811-6820 (2012); incorporated by reference herein.) TNBC represents a unique subtype of breast cancer clinically characterized by the lack of expression of estrogen receptor (ER), progesterone receptor (PR) and human epidermal growth factor receptor 2 (HER2). Subjects with triple negative breast cancer often have a poor prognosis (Kang S P et al, Curr Opin Obstet Gynecol 20, 40-46 (2008) and The Cancer Genome Atlas Network Nature, 490, 61-70 (2012); both of which are incorporated by reference herein). Current treatment options for TNBC are limited and novel agents are needed (Shastry M and Yardley D A, Curr Opin Obstet Gynecol 25, 40-48 (2013); incorporated by reference herein).
(§2) GI50 values represent the concentration that limits the growth of the cancer cells by 50% during a 72 hour incubation period. These are presented as mean±standard deviation of the mean of at least two independent experiments performed in duplicate.
(§3) TMTT assays for MDA-MB-231, MDA-MB-468 and HMEC were performed as described in Li et al, 2012 supra.

The next series concerns MDA-MB-231. Nature of the series: MTT antiproliferation assay in MDA-MB-231 cells. Format: cell-based. The conditions noted are these: Homo sapiens, concentration that limits growth by 50%, 72 hour incubation, mean ± SD, at least two experiments in duplicate. How it is done: as §1, §2, §3
A further series is described as follows: Solubility observations. Format: physicochemical. Particulars: high-quality 13C NMR spectra could not be obtained.

SMILES strings stand for the structures.

For `Nc1nc(NC(=O)c2ccc3ccccc3c2)c2c(ccc3[nH]ccc32)n1` [Compound 4f], the GI50 was 8.91 ± 1.28 µM in the series with MDA-MB-468 and 8.46 ± 2.56 µM with MDA-MB-231.

In the case of `CCCCOc1cc2ccccc2cc1C(=O)Nc1nc(N)c2c(ccc3[nH]ccc32)n1` [Compound 7g, N-(1-Amino-7H-pyrrolo[3,2-f]quinazolin-3-yl)-3-butoxy-2-naphthamide], the GI50 in the series on MDA-MB-468 amounted to 0.1 ± 0.079 µM; with MDA-MB-231 it was 0.65 ± 0.43 µM.

Take `Nc1nc(N)c2c(ccc3c2ccn3C(=O)c2ccc3ccccc3c2)n1` [Compound 2f]: the melting point was in the range of 188 to 190 °C.

Regarding `CC(C)C(=O)Nc1nc(N)nc2ccc3[nH]ccc3c12` [Compound 4d], the GI50 in the series with MDA-MB-468 and with MDA-MB-231 was over 100 µM throughout.

`CCCC(=O)n1ccc2c3c(N)nc(N)nc3ccc21` [Compound 2c] registered a melting point of 196 to 198 °C. For the same molecule, in “Solubility observations”, the “solubility (13C NMR sample)” value is “so limited”.

As to `CCC(=O)n1ccc2c3c(N)nc(N)nc3ccc21` [Compound 2b], the melting point lay within 210 to 212 °C. For the same molecule, the “solubility (13C NMR sample)” value in “Solubility observations” is “so limited”.

Regarding `CC(C)C(=O)Nc1nc(N)c2c(ccc3[nH]ccc32)n1` [Compound 7d], the melting point was in the range of 288 to 290 °C. This molecule also returned a GI50 in the series on MDA-MB-468 of 29.8 ± 8.41 µM. The GI50 in the series on MDA-MB-231 was 39.7 ± 22.5 µM.

Take `CCCC(=O)Nc1nc(N)c2c(ccc3[nH]ccc32)n1` [Compound 7c]: the melting point was in the range of 262 to 264 °C. The molecule also registered a GI50 in the series with MDA-MB-468 of 27.4 ± 4.52 µM. In the series on MDA-MB-231, this molecule returned a GI50 of 25.5 ± 9.93 µM.

For the molecule `Nc1nc(N)c2c(ccc3[nH]ccc32)n1` [Compound 1, 7H-Pyrrolo[3,2-f]quinazoline-1,3-diamine, reference compound], the figures for the GI50 in the series on MDA-MB-468 and with MDA-MB-231 were 3.34 ± 0.93 µM and 4.13 ± 0.54 µM, respectively.

Molecule `CC(=O)n1ccc2c3c(N)nc(N)nc3ccc21` [Compound 2a] returned a melting point of 202 to 204 °C. Further, the “solubility (13C NMR sample)” value in the series “Solubility observations” is “so limited”.

For `CC(C)C(=O)n1ccc2c3c(N)nc(N)nc3ccc21` [Compound 2d], the melting point was in the range of 200 to 202 °C.

In the case of `CCC(=O)Nc1nc(N)nc2ccc3[nH]ccc3c12` [Compound 4b], the melting point was in the range of 226 to 228 °C. In the series with MDA-MB-468, halving of growth (GI50) required 20.3 ± 7.4 µM. Also, the 50% growth inhibitory concentration (GI50) with MDA-MB-231 worked out at 18.7 ± 2.24 µM.

In the case of `CCCC(=O)Nc1nc(N)nc2ccc3[nH]ccc3c12` [Compound 4c], the melting point is 224 to 226 °C. In the series with MDA-MB-468, this molecule yielded a GI50 of 26.3 ± 7.4 µM. The same molecule registered a GI50 in the series on MDA-MB-231 of 26.9 ± 12.9 µM.

In turn, `CC(=O)Nc1nc(N)nc2ccc3[nH]ccc3c12` [Compound 4a] yielded a melting point of 236 to 238 °C. The molecule also showed a GI50 with MDA-MB-468 of 56.5 ± 18 µM. This molecule also yielded a GI50 with MDA-MB-231 of 32.6 ± 14 µM.

With `CC(=O)Nc1nc(N)c2c(ccc3[nH]ccc32)n1` [Compound 7a], the melting point is 260 to 262 °C. Besides, the GI50 in the series with MDA-MB-468 stood at 53.5 ± 29.5 µM. In the series on MDA-MB-231, this molecule yielded a GI50 of 27.2 ± 11.4 µM.

Molecule `CCC(=O)Nc1nc(N)c2c(ccc3[nH]ccc32)n1` [Compound 7b] had a melting point of 228 to 230 °C. The molecule further came in with a GI50 in the series on MDA-MB-468 of 24.4 ± 3.33 µM. In addition, it took 21.4 ± 9.86 µM to inhibit growth in the series on MDA-MB-231 by half (GI50).

Source of the values: patent US9133203B2, “Pyrroloquinazoline compounds” (OREGON HEALTH & SCIENCE UNIVERSITY, priority 2013, dated 2015).
